Our source for the EC50 and Lymphocyte counts values is US8592460B2, “Amino-pyridine derivatives as S1P1 /EDG1 receptor agonists” (Actelion Pharmaceuticals Ltd., priority 2007, dated 2013).

By EC50 is commonly meant the concentration giving half of the maximal effect.

The structures appear in SMILES notation. Bounds are passed on as bounds.

Chain of recombinant human S1P1 receptor (P21453 whole entry): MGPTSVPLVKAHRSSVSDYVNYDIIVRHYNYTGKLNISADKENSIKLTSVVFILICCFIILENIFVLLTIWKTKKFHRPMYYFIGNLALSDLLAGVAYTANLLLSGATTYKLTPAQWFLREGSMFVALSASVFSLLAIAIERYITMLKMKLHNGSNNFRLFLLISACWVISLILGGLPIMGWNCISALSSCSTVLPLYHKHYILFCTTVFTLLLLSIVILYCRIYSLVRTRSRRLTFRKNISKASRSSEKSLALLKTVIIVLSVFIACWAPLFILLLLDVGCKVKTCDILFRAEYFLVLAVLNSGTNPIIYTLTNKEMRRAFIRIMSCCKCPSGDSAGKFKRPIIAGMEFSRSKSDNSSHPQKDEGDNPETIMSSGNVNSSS

One experiment has as its target recombinant human S1P1 receptor (Homo sapiens, UniProt P21453). The experiment can be described thus: GTPγS assay to determine EC50 values. Type of experiment: biochemical. As to conditions: agonistic activity; 35S-GTPγS binding, membrane preparations of CHO cells expressing recombinant human S1P1 receptor. Here is the method:
GTPγS binding assays are performed in 96 well microtiter plates (Nunc, 442587) in a final volume of 200 μl, using membrane preparations of CHO cells expressing recombinant human S1P1 receptor. Assay conditions are 20 mM Hepes (Fluka, 54461), 100 mM NaCl (Fluka, 71378), 5 mM MgCl2(Fluka, 63064), 0.1% BSA (Calbiochem, 126609), 1 μM GDP (Sigma, G-7127), 2.5% DMSO (Fluka, 41644), […] ^35S-GTPγS (Amersham Biosciences, SJ1320). The pH is 7.4. Test compounds are dissolved and diluted in 100% DMSO and pre-incubated at room temperature for 30 min in 150 μl of the above assay buffer, in the absence of ^35S-GTPγS. After addition of 50 μl of ^35S-GTPγS, the assay is incubated for 1 h at rt. The assay is terminated by transfer of the reaction mixture to a Multiscreen plate (Millipore, MAHFC1H60) using a cell harvester from Packard Biosciences, and the plates are washed with ice-cold 10 mM Na2HPO4/NaH2PO4 (70%/30%), dried, sealed at the bottom and, after addition of 25 μl MicroScint20 (Packard Biosciences, order#6013621), sealed on the top. Membrane-bound ^35S-GTPγS is measured with a TopCount from Packard Biosciences.
EC50 is the concentration of agonist inducing 50% of the maximal specific ^35S-GTPγS binding. Specific binding is determined by subtracting non-specific binding from maximal binding. Maximal binding is the amount of cpm bound to the Multiscreen plate in the presence of 10 μM of S1P. Non-specific binding is the amount of binding in the absence of an agonist in the assay.
As to `Cc1cc(-c2nc(-c3cc(C)c(OC[C@@H](O)CO)c(C)c3)no2)cc(N(C)C(C)C)n1` [Example 22, (S)-3-(4-{5-[2-(Isopropyl-methyl-amino)-6-methyl-pyridin-4-yl]-[1,2,4]oxadiazol-3-yl}-2,6-dimethyl-phenoxy)-propane-1,2-diol], the 50% effective concentration (EC50) worked out at 0.7 nM. The same measure, in the same setting: then `CCc1cc(-c2nnc(-c3cc(C)nc(N(CC)CC)c3)o2)cc(C)c1OC[C@@H](O)CNC(=O)CO` [Example 87, N—((S)-3-{4-[5-(2-diethylamino-6-methyl-pyridin-4-yl)-[1,3,4]oxadiazol-2-yl]-2-ethyl-6-methyl-phenoxy}-2-hydroxy-propyl)-2-hydroxy-acetamide], with 3.4 nM. Still for that read-out and setting: the value for `CCc1cc(-c2nc(-c3cc(C)nc(N(CC)CC)c3)no2)cc(C)c1OC[C@H](O)CNC(=O)CO` [Example 79, N—((R)-3-{4-[3-(2-diethylamino-6-methyl-pyridin-4-yl)-[1,2,4]oxadiazol-5-yl]-2-ethyl-6-methyl-phenoxy}-2-hydroxy-propyl)-2-hydroxy-acetamide] was 1.4 nM; that for `CCc1cc(-c2noc(-c3cc(C)nc(NC(C)C)c3)n2)cc(C)c1OC[C@H](O)CO` [Example 198, (R)-3-{2-ethyl-4-[5-(2-isopropylamino-6-methyl-pyridin-4-yl)-[1,2,4]oxadiazol-3-yl]-6-methyl-phenoxy}-propane-1,2-diol] was 2.4 nM. As for `CCN(CC)c1cc(-c2nc(-c3cc(Cl)c(OC[C@H](O)CNC(=O)CO)c(OC)c3)no2)cc(C)n1` [Example 116, N—((R)-3-{2-chloro-4-[5-(2-diethylamino-6-methyl-pyridin-4-yl)-[1,2,4]oxadiazol-3-yl]-6-methoxy-phenoxy}-2-hydroxy-propyl)-2-hydroxy-acetamide], the EC50 is 2 nM. On the same count and under the same terms, then `CCN(CC)c1cc(-c2nc(-c3cc(C)c(OC[C@@H](O)CNC(=O)CO)c(Cl)c3)no2)cc(C)n1` [Example 109, N—((S)-3-{2-chloro-4-[5-(2-diethylamino-6-methyl-pyridin-4-yl)-[1,2,4]oxadiazol-3-yl]-6-methyl-phenoxy}-2-hydroxy-propyl)-2-hydroxy-acetamide], with 0.5 nM; and `CCc1cc(-c2noc(-c3cc(C)nc(N(CC)CC)c3)n2)cc(C)c1OCC(O)CO` (racemic) [Example 15, rac-3-{4-[5-(2-Diethylamino-6-methyl-pyridin-4-yl)-[1,2,4]oxadiazol-3-yl]-2-ethyl-6-methyl-phenoxy}-propane-1,2-diol], with 1.2 nM; and `Cc1cc(-c2nc(-c3cc(C)c(OC[C@@H](O)CNC(=O)CO)c(Cl)c3)no2)cc(N(C)C(C)C)n1` [Example 146, N—[(S)-3-(2-chloro-4-{5-[2-(isopropyl-methyl-amino)-6-methyl-pyridin-4-yl]-[1,2,4]oxadiazol-3-yl}-6-methyl-phenoxy)-2-hydroxy-propyl]-2-hydroxy-acetamide], with 0.8 nM. On the same count and under the same terms, the value for `CCc1cc(-c2nc(-c3cc(C)c(OC[C@@H](O)CNC(=O)CO)c(CC)c3)no2)cc(N(C)C)n1` [Example 192, N—((S)-3-{4-[5-(2-dimethylamino-6-ethyl-pyridin-4-yl)-[1,2,4]oxadiazol-3-yl]-2-ethyl-6-methyl-phenoxy}-2-hydroxy-propyl)-2-hydroxy-acetamide] was 0.2 nM. `CCc1cc(-c2noc(-c3cc(C)nc(N(C)CC(C)C)c3)n2)cc(C)c1OC[C@@H](O)CNC(=O)CO` [Example 232, N—[(S)-3-(2-ethyl-4-{5-[2-(isobutyl-methyl-amino)-6-methyl-pyridin-4-yl]-[1,2,4]oxadiazol-3-yl}-6-methyl-phenoxy)-2-hydroxy-propyl]-2-hydroxy-acetamide]: the half-maximal effective concentration (EC50) came to 4.1 nM. Turning to `CCCc1cc(-c2noc(-c3cc(C)nc(N(C)C(C)C)c3)n2)cc(C)c1OC[C@@H](O)CNC(=O)CO` [Example 139, 2-hydroxy-N—[(S)-2-hydroxy-3-(4-{5-[2-(isopropyl-methyl-amino)-6-methyl-pyridin-4-yl]-[1,2,4]oxadiazol-3-yl}-2-methyl-6-propyl-phenoxy)-propyl]-acetamide], the concentration for a half-maximal effect (EC50) is 2 nM. In the case of `COc1cc(OC[C@H](O)CNC(=O)CO)ccc1-c1noc(-c2cc(C)nc(N(C)C(C)C)c2)n1` [Example 159, 2-hydroxy-N—[(R)-2-hydroxy-3-(4-{5-[2-(isopropyl-methyl-amino)-6-methyl-pyridin-4-yl]-[1,2,4]oxadiazol-3-yl}-3-methoxy-phenoxy)-propyl]-acetamide], the EC50 amounted to 5.1 nM. For the compound `CCc1cc(-c2noc(-c3cc(C)nc(N(C)C(C)C)c3)n2)cc(C)c1OC[C@@H](O)CNC(=O)CO` [Example 130, N—[(S)-3-(2-ethyl-4-{5-[2-(isopropyl-methyl-amino)-6-methyl-pyridin-4-yl]-[1,2,4]oxadiazol-3-yl}-6-methyl-phenoxy)-2-hydroxy-propyl]-2-hydroxy-acetamide], the half-maximal effective concentration (EC50) was found to be 0.1 nM.

In the case of `Cc1cc(-c2nc(-c3cc(C)c(O)c(C)c3)no2)cc(N(C)C(C)C)n1` [Example 21, 4-{5-[2-(Isopropyl-methyl-amino)-6-methyl-pyridin-4-yl]-[1,2,4]oxadiazol-3-yl}-2,6-dimethyl-phenol], the half-maximal effective concentration (EC50) came out at 3.6 nM. Still for that read-out and setting: the value for `CCc1cc(-c2nc(-c3cc(C)c(OCC(O)CNC(=O)CO)c(CC)c3)no2)cc(N(C)C)n1` (racemic) [Example 32, rac-N-(3-{4-[5-(2-Dimethylamino-6-ethyl-pyridin-4-yl)-[1,2,4]oxadiazol-3-yl]-2-ethyl-6-methyl-phenoxy}-2-hydroxy-propyl)-2-hydroxy-acetamide] was 1.2 nM; that for `CCc1cc(-c2noc(-c3cc(C)nc(N(C)C(C)C)c3)n2)cc(C)c1CCC(=O)NCCC(=O)O` [Example 26, 3-[3-(2-Ethyl-4-{5-[2-(isopropyl-methyl-amino)-6-methyl-pyridin-4-yl]-[1,2,4]oxadiazol-3-yl}-6-methyl-phenyl)-propionylamino]-propionic acid] was 2.6 nM. Turning to `CCc1cc(-c2noc(-c3cc(C)nc(NC(C)C)c3)n2)cc(C)c1OC[C@@H](O)CNC(=O)CO` [Example 203, N—((S)-3-{2-ethyl-4-[5-(2-isopropylamino-6-methyl-pyridin-4-yl)-[1,2,4]oxadiazol-3-yl]-6-methyl-phenoxy}-2-hydroxy-propyl)-2-hydroxy-acetamide], the 50% effective concentration (EC50) was determined as 0.5 nM.

Consider `CCc1cc(-c2noc(-c3cc(C)nc(N(CC)CC)c3)n2)cc(C)c1OCCN1CCC(C(=O)O)C1` (racemic) [Example 66, rac-1-(2-{4-[5-(2-Diethylamino-6-methyl-pyridin-4-yl)-[1,2,4]oxadiazol-3-yl]-2-ethyl-6-methyl-phenoxy}-ethyl)-pyrrolidine-3-carboxylic acid], for which the EC50 was found to be 6.2 nM.

Staying with this experiment, now noted: agonistic activity; 35S-GTPγS binding, membranes of CHO cells expressing recombinant human S1P1 receptor.
Take `CCc1cc(-c2noc(-c3cc(C)nc(N(C)CC(C)C)c3)n2)cc(C)c1OCC(O)CO` (racemic) [Example 34, rac-3-(2-Ethyl-4-{5-[2-(isobutyl-methyl-amino)-6-methyl-pyridin-4-yl]-[1,2,4]oxadiazol-3-yl}-6-methyl-phenoxy)-propane-1,2-diol]: the EC50 was greater than 10000 nM. In the case of `CCc1cc(-c2nnc(-c3cc(C)nc(N(C)C(C)C)c3)s2)cc(C)c1OC[C@@H](O)CN` [Example 179], the concentration for a half-maximal effect (EC50) was greater than 10000 nM.

`CCc1cc(-c2noc(-c3cc(C)nc(N4CCOCC4)c3)n2)cc(C)c1OC[C@@H](O)CN` [Example 209]: the EC50 was greater than 10000 nM. Same read-out and setting: then `CCc1cc(-c2nnc(-c3cc(C)nc(N(CC)CC)c3)s2)cc(C)c1OC[C@@H](O)CO` [Example 90], with greater than 10000 nM; and `CCc1cc(-c2noc(-c3cc(C)nc(N4CCOCC4)c3)n2)cc(C)c1OC[C@H](O)CN` [Example 208], with greater than 10000 nM. Regarding `CCc1cc(-c2nnc(-c3cc(C)nc(N(C)C(C)C)c3)s2)cc(C)c1OC[C@H](O)CO` [Example 176], the EC50 was greater than 10000 nM. The same measure, in the same setting: then `CCc1cc(-c2nnc(-c3cc(C)nc(N(C)C(C)C)c3)s2)cc(C)c1OC[C@H](O)CN` [Example 178], with greater than 10000 nM.

The test system of the next experiment is circulating lymphocytes. The experiment can be described thus: Assessment of in vivo efficacy: circulating lymphocytes after oral administration. More on the design: species or system rat. The following applies: 6 h after oral administration of 10 mg/kg to normotensive male Wistar rats, compared to vehicle-treated group; mean ± SEM. Here is the method: The efficacy of the compounds of formula (I) is assessed by measuring the circulating lymphocytes after oral administration of 3 to 30 mg/kg of a compound of formula (I) to normotensive male Wistar rats. The animals are housed in climate-controlled conditions with a 12 h-light/dark cycle, and have free access to normal rat chow and drinking water. Blood is collected before and 3, 6 and 24 h after drug administration. Full blood is subjected to hematology using Advia Hematology system (Bayer Diagnostics, Zurich, Switzerland).
All data are presented as mean±SEM. Statistical analyses are performed by analysis of variance (ANOVA) using Statistica (StatSoft) and the Student-Newman-Keuls procedure for multiple comparisons. The null hypothesis is rejected when p<0.05.
Lymphocyte counts 6 h after oral administration have been measured for 39 of the 258 exemplified compounds and are in the range of −82% to −48% with an average of −65%.
For `CCc1cc(-c2nc(-c3cc(C)nc(N(CC)CC)c3)no2)cc(C)c1OC[C@@H](O)CNC(=O)CO` [Example 80, N—((S)-3-{4-[3-(2-diethylamino-6-methyl-pyridin-4-yl)-[1,2,4]oxadiazol-5-yl]-2-ethyl-6-methyl-phenoxy}-2-hydroxy-propyl)-2-hydroxy-acetamide], the Lymphocyte counts is −68 ± 2%.
